# Experimental data: patent US5011947A, “Antihypercholesterolemic alkylene compounds” (Bristol-Myers, priority 1990, dated 1991)
# Structures can show the parent of a compound that is named as a salt.
# Target: T1, rat liver HMG-CoA reductase (Rattus norvegicus, UniProt P51639)
# T1 construct: from tissue; host or cells: rat liver microsomes
# T1 sequence (P51639 1-887): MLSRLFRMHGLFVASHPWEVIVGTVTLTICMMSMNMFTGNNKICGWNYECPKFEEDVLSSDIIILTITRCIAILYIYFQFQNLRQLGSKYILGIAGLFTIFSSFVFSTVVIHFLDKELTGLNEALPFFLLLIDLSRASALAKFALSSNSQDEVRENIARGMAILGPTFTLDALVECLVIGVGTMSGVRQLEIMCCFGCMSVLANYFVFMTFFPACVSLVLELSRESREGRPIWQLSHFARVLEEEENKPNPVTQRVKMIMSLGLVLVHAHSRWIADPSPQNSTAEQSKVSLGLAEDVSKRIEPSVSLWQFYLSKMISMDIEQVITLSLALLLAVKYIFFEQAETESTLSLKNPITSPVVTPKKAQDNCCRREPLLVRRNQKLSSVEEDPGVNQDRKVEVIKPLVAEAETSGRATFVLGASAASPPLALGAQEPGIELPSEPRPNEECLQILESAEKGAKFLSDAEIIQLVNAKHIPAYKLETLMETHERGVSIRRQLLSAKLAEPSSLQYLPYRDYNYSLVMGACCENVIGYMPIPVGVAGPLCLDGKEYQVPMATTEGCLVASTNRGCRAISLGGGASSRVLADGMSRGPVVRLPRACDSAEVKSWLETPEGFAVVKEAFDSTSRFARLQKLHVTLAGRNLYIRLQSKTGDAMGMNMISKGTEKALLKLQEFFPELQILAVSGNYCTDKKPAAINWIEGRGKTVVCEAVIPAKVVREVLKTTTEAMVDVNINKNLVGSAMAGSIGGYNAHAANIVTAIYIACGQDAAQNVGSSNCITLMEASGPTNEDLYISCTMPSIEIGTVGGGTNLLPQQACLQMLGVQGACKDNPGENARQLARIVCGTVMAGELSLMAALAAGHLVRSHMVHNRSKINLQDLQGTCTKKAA
# Assay: Test A: In Vitro Inhibition of Microsomal HMG-CoA Reductase
# Assay type: biochemical
# Settings: intact, fully activated microsomal form of rat liver enzyme; [3-14C]-HMG-CoA 0.33 mM; NADPH 3.0 mM; pH 7.2; at least 4 dilutions in duplicate
# Protocol: Test A: In Vitro Inhibition of Microsomal HMG-CoA Reductase:
# The intact, fully activated microsomal form of rat liver HMG-CoA reductase (subunit MW ca 100,000 daltons) was prepared as described by Parker, et al., Biochem. Biophys. Res. Commun., 125, 629-635 (1984), and used as the source of enzyme for assays. HMG-CoA reductase activity was determined essentially by the method of Shapiro, et al., Biochem. Biophys. Acta., 370. 369-377 (1974), with modifications as described by Ingebritsen and Gibson, Meth. Enzymol. 71. 486-497 (1981) with the exception that the internal standard ^3 H-mevalonolactone is added after termination of the assay. In this procedure, the enzyme is assayed by measuring the formation of product, ^14 C-mevalonate, from the substrate, [3-^14 C]-HMG-CoA, in the presence of NADPH. The ^14 C-mevalonate is converted to its lactone and isolated by silica thin-layer chromatography (Whatman LK5D, developed in 50:50 benzene:acetone) in the presence of ^3 H-mevalonolactone as an internal standard. Assays were conducted under conditions in which product formation was linear with respect to time and enzyme concentration.
# To measure reductase inhibition, test compounds dissolved in water or dimethylsulfoxide and diluted in buffer A (50 mM imidazole-HCl, 250 mM NaCl, 1 mM EDTA, 1 mM EGTA, 5 mM DTT, 20 μM leupeptin, pH =7.2) were incubated with aliquots of microsomes (80-160 μg protein in buffer A) followed by addition of d,l-[3-^14 C]-HMG-CoA (0.33 mM, 2.0 dpm/picomole) and NADPH (3.0 mM). The 50 percent inhibitory concentration IC50) for each compound in Table 1 was calculated from the linear regression line of the percent decrease (from control) in enzyme activity vs. log concentration of inhibitor, determined using at least 4 dilutions of each test compound assayed in duplicate.
row,IC50 [µM],Structure (SMILES)
1,0.265,"CC(C)C(C=C[C@@H](O)C[C@@H](O)CC(=O)O)=C(c1ccc(F)cc1)c1ccc(F)cc1 (relative stereo) [Example 8, Erythro-9,9-bis(4-fluorophenyl)-3,5-dihydroxy-8-(1-methylethyl)-6,8-nonadienoic acid sodium salt]"
2,0.5,"CC(C)(C)C(C=C[C@@H](O)C[C@@H](O)CC(=O)O)=C(c1ccc(F)cc1)c1ccc(F)cc1 (relative stereo) [Example 42, Erythro-9,9-bis(4-fluorophenyl)-3,5-dihydroxy-8-(1,1-dimethylethyl)-6,8-nonadienoic acid sodium salt]"
3,0.45,"O=C(O)C[C@H](O)C[C@H](O)C=CC(=C(c1ccc(F)cc1)c1ccc(F)cc1)C1CC1 (relative stereo) [Example 51, Erythro-8-cyclopropyl-9,9-bis(4-fluorophenyl)-3,5-dihydroxy-6,8-nonadienoicacid sodium salt]"
4,0.41,"CCC(C=C[C@@H](O)C[C@@H](O)CC(=O)O)=C(c1ccc(F)cc1)c1ccc(F)cc1 (relative stereo) [Example 59, Erythro-8-ethyl-9,9-bis(4-fluorophenyl)-3,5-dihydroxy-6,8-non adienoate sodium salt]"
5,1.58,"O=C(O)C[C@H](O)C[C@H](O)C=CC(=C(c1ccc(F)cc1)c1ccc(F)cc1)C(F)(F)F (relative stereo) [Example 73, Erythro9,9-bis(4-fluorophenyl)-3,5-dihydroxy-8-trifluoromethyl-6,8-nonadienoic acid sodium salt]"

# Tested on: Isolated Hepatocyte Cholesterol Biosynthesis
# Assay: Test B: Isolated Hepatocyte Cholesterol Biosynthesis Assay
# Assay type: cell-based, male Wistar rats
# Settings: freshly isolated rat hepatocytes, 10 min preincubation, 60 minutes at 37°, pH 7.35, incorporation of 3H or 14C into sterols, read-out: IC50, Inhibition of Isolated Hepatocyte Cholesterol Biosynthesis
# Protocol: Test B: Isolated Hepatocyte Cholesterol Biosynthesis Assay:
# Intact parenchymal hepatocytes were isolated from male Wistar rats (180-280 g) fed cholestyramine containing or normal diet, using the collagenase perfusion method essentially as described by Seglen, in Methods in Cell Biology (D. Prescott, ed.) Vol. 13, pp. 29-83, Academic Press, New York (1976). Cell preparations were used only when viability (trypan blue exclusion) exceeded 90%. Cholesterol biosynthesis was determined as the incorporation by hepatocytes of ^3 H from [^3 H]-water into total (cellular plus medium) 3β-hydroxy sterols as per Ingebritsen, et al., J. Biol. Chem., 254, 9986-9989 (1979). Hepatocyte sterols and lipids were isolated by a modification of the methods described by Kates, in Techniques in Lipidology. (M. Kates, ed.), pp. 349, 360-363, North Holland Publ. Co., Amsterdam, 1972. To isolate sterols, cells are extracted with methanol:chloroform:water (2:1:0.8), the chloroform phase is separated and extracted with benzene to remove traces of water, then dried under nitrogen. The residue is saponified at 75° C. with 0.30 N NaOH in methanol:water (9:1). […] The ^3 H-labelled sterols are quantified by liquid scintillation and corrected for counting efficiency. […]
row,Structure (SMILES),IC50 [µM]
1,"CC(C)C(C=C[C@@H](O)C[C@@H](O)CC(=O)O)=C(c1ccc(F)cc1)c1ccc(F)cc1 (relative stereo) [Example 8, Erythro-9,9-bis(4-fluorophenyl)-3,5-dihydroxy-8-(1-methylethyl)-6,8-nonadienoic acid sodium salt]",0.027
2,"CC[C@H](C)C(=O)O[C@H]1C[C@@H](C)C=C2C=C[C@H](C)[C@H](CC[C@@H]3C[C@@H](O)CC(=O)O3)[C@H]21 [Mevinolin (Lovastatin), reference compound]",0.046 ± 0.026
